Assay results taken from patent US8389539B2, “Azacyclic derivatives” (Hoffman-La Roche Inc., priority 2009, dated 2013).

Target: T1, human HSL (Homo sapiens, UniProt Q05469)
T1 construct: overlapping PCR to generate a full length human HSL ORF with a 3′-His6 tag; His6 (C); made in house; host or cells: High 5 insect cells (baculovirus, pFast-BAC)
T1 sequence (Q05469 1-1076): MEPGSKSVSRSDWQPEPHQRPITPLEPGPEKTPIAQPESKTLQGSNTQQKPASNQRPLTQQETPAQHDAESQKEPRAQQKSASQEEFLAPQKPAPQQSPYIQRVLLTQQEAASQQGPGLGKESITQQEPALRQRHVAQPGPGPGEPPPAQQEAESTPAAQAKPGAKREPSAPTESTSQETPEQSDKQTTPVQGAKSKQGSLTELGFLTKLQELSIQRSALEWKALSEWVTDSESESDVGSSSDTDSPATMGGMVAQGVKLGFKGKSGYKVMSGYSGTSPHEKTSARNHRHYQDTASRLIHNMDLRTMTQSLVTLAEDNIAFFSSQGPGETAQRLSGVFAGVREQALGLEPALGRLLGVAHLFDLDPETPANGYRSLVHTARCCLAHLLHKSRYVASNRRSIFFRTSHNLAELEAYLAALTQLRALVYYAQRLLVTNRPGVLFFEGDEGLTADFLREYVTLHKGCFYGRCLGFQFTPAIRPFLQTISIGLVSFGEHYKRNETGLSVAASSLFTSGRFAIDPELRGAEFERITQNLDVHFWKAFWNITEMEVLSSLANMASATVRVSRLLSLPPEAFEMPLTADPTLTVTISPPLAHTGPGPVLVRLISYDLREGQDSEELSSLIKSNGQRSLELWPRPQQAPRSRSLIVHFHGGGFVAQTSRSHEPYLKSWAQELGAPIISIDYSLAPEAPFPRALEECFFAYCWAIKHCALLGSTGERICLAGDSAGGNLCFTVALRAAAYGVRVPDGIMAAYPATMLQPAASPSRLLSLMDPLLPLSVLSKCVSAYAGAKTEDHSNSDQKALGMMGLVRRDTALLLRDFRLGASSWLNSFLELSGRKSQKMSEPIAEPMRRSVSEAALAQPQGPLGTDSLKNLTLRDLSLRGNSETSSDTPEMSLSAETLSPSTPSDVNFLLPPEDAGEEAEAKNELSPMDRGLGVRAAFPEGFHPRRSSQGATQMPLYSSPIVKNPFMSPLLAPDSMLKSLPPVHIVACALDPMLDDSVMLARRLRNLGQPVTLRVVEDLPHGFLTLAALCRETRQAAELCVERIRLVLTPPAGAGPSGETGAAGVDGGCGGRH
Assay: Human Hormone-Sensitive Lipase (HSL) enzyme inhibition assay (colorimetric, DMPT substrate)
Assay type: biochemical
Details: human full length HSL-His6, 2,3-dimercapto-1-propanol tributyrate substrate, 37° C. 20 minutes, absorbance at 405 nm; read-out: HSL hum IC50
Protocol: 1) Cloning: cDNA was prepared from commercial human brain polyA+ RNA and used as a template in overlapping PCR to generate a full length human HSL ORF with a 3′-His6 tag. This full length insert was cloned into the pFast-BAC vector and the DNA-sequence of several single clones was verified. DNA from a correct full length clone with the 3′His6 tag was used to transform the E. coli strain DH10BAC. Resulting bacmid DNA was used to generate a titered baculovirus stock for protein generation.
Cells were thawed. […] was done at 3×30 sec., Lubrol PX was added to 0.2% final concentration followed by stirring for 15 min. at 4° C. and centrifugation at 25 k×g, 60 min., 4° C. […] Supernatant was removed, the resin washed in the centrifuge vessel using 5 volumes of Base Buffer containing 0.2% Lubrol PX. Centrifugation was done again, then the supernatant discarded. The resin was poured onto a 0.8 μm membrane in a disposable filter unit (Nalge 450-0080), and washed with 5 volumes of Base Buffer containing 0.2% Lubrol PX. It was then washed with 30 volumes of Base Buffer containing 60 mM imidazole pH 7.5 at 4° C. The protein was eluated with 5 volumes of 25 mM Tris-Cl, 300 mM NaCl, 200 mM imidazole, 10 mM 2-mercaptoethanol, pH 7.5 at 4° C. by tumbling resin with buffer end-over-end, 30 min., 4° C. The resin was captured on a 0.2 μm membrane disposable filter unit (Millipore SCGP U02 RE) and the eluate collected in the reservoir. The eluate was concentrated using a 30 k MWCO centrifugal filter device (Sartorius Vivascience Vivacell 100, VC1022), to 20 ml. It was then dialyzed overnight at 4° C., two times against 2 L of 10% glycerol, 25 mM Tris-Cl, 300 mM NaCl, 0.2 mM EDTA, 0.2 mM DTT, pH 7.5 at 4° C. The protein was filtered using a 0.22 μm disposable filter unit (Millipore SCGP00525). The protein concentration was calculated from absorbance at 280 nm, using 280=0.67 cm-1 mg-1. […] The protein was stored at −80° C.
Human Hormone-Sensitive Lipase (HSL) Enzyme Inhibition Assay:
HSL enzyme activity was measured by a colorimetric assay using 2,3-dimercapto-1-propanol tributyrate (Aldrich, St. Louis, Mo.) as a substrate. Typically, 1.5 mM 2,3-dimercapto-1-propanol tributyrate (DMPT) in 100 mM MOPS, pH 7.2, 0.2 mg/ml fatty acid-free BSA was prepared by sonication at 4° C. to homogenous suspension. Test compounds (2 mM stock in DMSO) were diluted 3 fold in series in DMSO. Compound solutions were diluted 24 fold in 1.5 mM DMPT containing solution and 18 ul per well was added to 384-well microplates (Corning Costar). Twelve microliters per well of human HSL (15 ug/ml) was added and the reaction mixture was incubated at 37° C. for 20 minutes. Six microliters of 12 mM dithio-bis-(2-nitrobenzoic acid) (DTNB) in DMSO plus 1.2% SDS and 0.6% Triton X-100 were added and the mixture was incubated at room temperature for 15 minutes. Product production was monitored by reading absorbance at 405 nm on an Envision Reader (PerkinElmer Life and Analytical Sciences, Shelton, Conn.).

`C[C@@H](Oc1ccc(N2CCC3(CCN(CC(O)c4ccc(Cl)cc4Cl)CC3)C2=O)cn1)C(F)(F)F` (stereo partly drawn) [Example 45, 8-[2-(2,4-Dichloro-phenyl)-2-hydroxy-ethyl]-2-[6-((R)-2,2,2-trifluoro-1-methyl-ethoxy)-pyridin-3-yl]-2,8-diaza-spiro[4.5]decan-1-one] and `C[C@H](Oc1ccc(N2CCC3(CCN(CC(O)c4ccc(Cl)cc4Cl)CC3)C2=O)cc1)C(F)(F)F` (stereo partly drawn) [Example 52, 8-[2-(2,4-Dichloro-phenyl)-2-hydroxy-ethyl]-2-[4-((S)-2,2,2-trifluoro-1-methyl-ethoxy)-phenyl]-2,8-diaza-spiro[4.5]decan-1-one] are within 1.5-fold of each other in IC50: 22 nM for the first, 20 nM for the second.

Compared with `COCCCNC(=O)CN1CCC2(CC1)CCN(c1ccc(C3CC3)cc1)C2=O` [Example 17, 2-[2-(4-Cyclopropyl-phenyl)-1-oxo-2,8-diaza-spiro[4.5]dec-8-yl]-N-(3-methoxy-propyl)-acetamide], `CCCCNC(=O)C(CC)N1CCC2(CCN(c3ccc(C4CC4)cc3)C2=O)CC1` (centres unmarked) [Example 28, N-Butyl-2-[2-(4-cyclopropyl-phenyl)-1-oxo-2,8-diaza-spiro[4.5]dec-8-yl]-butyramide] is 24-fold lower in IC50: 710 nM for the first, 30 nM for the second. The second is the more potent here.

`C[C@@H](Oc1ccc(N2CCC3(CCN(CC(O)c4c(F)cccc4Cl)CC3)C2=O)cc1)C(F)(F)F` (stereo partly drawn) [Example 48, 8-[2-(2-Chloro-6-fluoro-phenyl)-2-hydroxy-ethyl]-2-[4-((R)-2,2,2-trifluoro-1-methyl-ethoxy)-phenyl]-2,8-diaza-spiro[4.5]decan-1-one] and `C[C@H](Oc1ccc(N2CCC3(CCN(CC(O)c4c(F)cccc4Cl)CC3)C2=O)cc1)C(F)(F)F` (stereo partly drawn) [Example 54, 8-[2-(2-Chloro-6-fluoro-phenyl)-2-hydroxy-ethyl]-2-[4-((S)-2,2,2-trifluoro-1-methyl-ethoxy)-phenyl]-2,8-diaza-spiro[4.5]decan-1-one] are within 1.5-fold of each other in IC50: 23 nM for the first, 29 nM for the second.

`CCCCNC(=O)C(c1ccccc1)N1CCC2(CCN(c3ccc(C4CC4)cc3)C2=O)CC1` (centres unmarked) [Example 29, N-Butyl-2-[2-(4-cyclopropyl-phenyl)-1-oxo-2,8-diaza-spiro[4.5]dec-8-yl]-2-phenyl-acetamide] and `CCC(c1ccccc1)N1CCC2(CCN(c3ccc(C4CC4)cc3)C2=O)CC1` (centres unmarked) [Example 7, 2-(4-Cyclopropyl-phenyl)-8-(1-phenyl-propyl)-2,8-diaza-spiro[4.5]decan-1-one] are within 1.5-fold of each other in IC50: 40 nM for the first, 30 nM for the second.

Going from `O=C(CN1CCC2(CC1)CCN(c1ccc(C3CC3)cc1)C2=O)NCc1ccc(C(F)(F)F)cc1` [Example 12, 2-[2-(4-Cyclopropyl-phenyl)-1-oxo-2,8-diaza-spiro[4.5]dec-8-yl]-N-(4-trifluoromethyl-benzyl)-acetamide] to `CN(Cc1ccccc1)C(=O)CCN1CCC2(CC1)CCN(c1ccc(C3CC3)cc1)C2=O` [Example 21, N-Benzyl-3-[2-(4-cyclopropyl-phenyl)-1-oxo-2,8-diaza-spiro[4.5]dec-8-yl]-N-methyl-propionamide], the IC50 rises from 30 nM to 90 nM (3-fold). The first is the more potent here.

Compared with `O=C1N(c2ccc(C3CC3)cc2)CCC12CCN(CC(O)c1ccc(Cl)c(Cl)c1)CC2` (centres unmarked) [Example 37, 2-(4-Cyclopropyl-phenyl)-8-[2-(3,4-dichloro-phenyl)-2-hydroxy-ethyl]-2,8-diaza-spiro[4.5]decan-1-one], `O=C1N(c2ccc(CC(F)(F)F)cc2)CCC12CCN(CC(O)c1ccc(Cl)cc1Cl)CC2` (centres unmarked) [Example 46, 8-[2-(2,4-Dichloro-phenyl)-2-hydroxy-ethyl]-2-[4-(2,2,2-trifluoro-ethyl)-phenyl]-2,8-diaza-spiro[4.5]decan-1-one] is 1.6-fold lower in IC50: 30 nM for the first, 19 nM for the second.

Compared with `CCc1ccc(N2CCC3(CCN(CC(=O)c4ccc(Cl)cc4Cl)CC3)C2=O)cc1` [Example 43, 8-[2-(2,4-Dichloro-phenyl)-2-oxo-ethyl]-2-(4-ethyl-phenyl)-2,8-diaza-spiro[4.5]decan-1-one], `C[C@@H](Oc1ccc(N2CCC3(CCN(CC(O)c4ccc(Cl)cc4Cl)CC3)C2=O)cc1)C(F)(F)F` (stereo partly drawn) [Example 51, 8-[2-(2,4-Dichloro-phenyl)-2-hydroxy-ethyl]-2-[4-((R)-2,2,2-trifluoro-1-methyl-ethoxy)-phenyl]-2,8-diaza-spiro[4.5]decan-1-one] is 1.6-fold lower in IC50: 36 nM for the first, 22 nM for the second. The second is the more potent here.
